From patent US11413321B2, “Pharmaceutical composition for use in increasing hair, modifying scalp or skin, healing a wound, promoting osteogenesis, or modifying hair” (priority 2017, dated 2022) come the findings set out here.

What all share (assay type): in vivo, Wistar rat
The subject of assay [1] is full-thickness skin defect. Nature of the assay: Wound healing score, circular full-thickness skin defect on the dorsal part. The procedure: Formation of wounds: hair on the dorsal part of a 12-week-old Wistar rat was shaven with hair clippers, and a circular full-thickness skin defect with a diameter of 8 mm was produced on each of the left and right sides of the head and the left and right sides of the tail. The full-thickness skin defect was formed at four locations per body.
Administration of milk: 20 μL of milk was subcutaneously injected at each of four locations, namely upper, lower, left and right, in a place 4 mm away from the peripheral edge of the wound. As the milk, the commercially available bovine milk sterilized by heating (at 130 degrees for 2 seconds and 65 degrees for 30 minutes) as described in Example 1 was used.
Administration of fatty acid: As a fatty acid contained in the milk, sterile purified water (administration liquid) containing palmitic acid, stearic acid, myristic acid, linolenic acid, α-linoleic acid and oleic acid, respectively was administered. Here, the water was heated and administered for the saturated fatty acids, and the water was administered at room temperature for the unsaturated fatty acids. 20 μL of the administration liquid (containing 1 mg of the fatty acid) was subcutaneously administered at each of four locations, namely upper, lower, left and right, in a place 4 mm away from the peripheral edge of the wound.
Score 4: The reduction ratio of the area of the wound site is 70% or more.
Score 3: The reduction ratio of the area of the wound site is 50% or more and less than 70%.
Score 2: The reduction ratio of the area of the wound site is 20% or more and less than 50%.
Score 1: The reduction ratio of the area of the wound site is less than 20%.
The result was given as a ratio obtained by dividing the above score by the score for physiological saline.
Two tubes of 8 mL of commercially available milk sterilized at a low temperature (65 degrees for 30 minutes) were centrifuged by a centrifugal separator (2600 g×6 minutes), 2 mL of one fourth of the supernatant exclusive of a whip portion was collected from each tube, the two collected liquids were combined to obtain 4 mL of a liquid, and 4 mL of the resulting liquid was stirred, and used for experiments (hereinafter, the obtained sample is referred to as a “centrifuged sample”). The obtained centrifuged sample was administered to the wound site at a dosage of 20 μL per location in the same manner as described above. The results are shown in “Centrifuged Sample” in FIG. 6A.
Next, a wound healing-promoting effect of lactoferrin was examined. As lactoferrin, Nice rim essence 62971 (trade name) purchased from Lion Corporation was used and administered at one location in an amount of 20 μg or 60 μg in the same manner as described above. Specifically, the lactoferrin was ground, and then thoroughly dissolved in purified water. The lactoferrin concentration was adjusted so that an injection amount of 20 μL included the above administration amount. The result was given as a value obtained by dividing each of scores after seven days and after ten days by the score for the physiological saline administration group.

Assay [2] has as its system PPAR-γ-positive cells. Nature of the assay: Immunohistological staining of rat dorsal skin after injection of fatty acids (PPAR-γ). The following applies: 1 mg fatty acid in 20 μL per location; for number of PPAR-γ-positive cells at the administration site: four weeks after administration, vs physiological saline, FIGS. 10B-10G; for increase in the number of PPAR-γ-positive cells at the administration site: eight weeks after administration. The protocol:
(§1) Next, representative fatty acids contained in milk were administered to a 12-week-old Wistar rat at a plurality of locations on the dorsal skin as in Example 1(2) above, and a change in tissues by the administration was observed after the tissues were subjected to immunohistological staining. More specifically, physiological saline was administered in an amount of 20 μL per location, an administration liquid containing 1 mg of a fatty acid was administered in an amount of 20 μL per location, and a change in CD68-positive macrophage stained images and PPAR-γ-positive cell images by the administration was observed. Samples of the Wistar rat were obtained by sampling administration sites (four weeks after administration and eight weeks after administration). FIGS. 10A to 10G show the results. […] At saturated fatty acid injection sites, infiltration of a large number of CD68-positive cells was observed, and fibrillization of normal tissues was observed. Therefore, in FIGS. 10B to 10D, a change in fat tissues was examined at a location which was closest to the administration site and where normal tissues were maintained (non-fibrillization location).

Assay [3] has as its system CD68-positive cells. Nature of the assay: Immunohistological staining of rat dorsal skin after injection of fatty acids (CD68). The following applies: 1 mg fatty acid in 20 μL per location; for number of CD68-positive cells (overall statement): a weak effect was observed overall. The protocol:
as §1

The test system of assay [4] is CD68-positive cells. Nature of the assay: Immunohistological staining of rat dorsal skin after forced oral lactoferrin (CD68). The following applies: 300 mg oral once a day, eight weeks after administration, n=3; FIG. 9. The protocol: (§2) As a comparative test, lactoferrin was administered instead of milk, and whether the number of CD68-positive cells and the number of PPAR-γ-positive cells increased or not was examined. As lactoferrin, three tablets of Nice rim essence 62971 (manufactured by Lion Corporation) corresponding to 300 mg of active lactoferrin (amount ingested per day by a human) were orally administered to a 12-week-old Wistar rat (n=3). Administration was performed once a day with the tablets injected (forcedly ingested) into the stomach using a feeding needle. Eight weeks after administration, a paraffin-embedded section of the dorsal skin was prepared by a conventional method, and subjected to immunohistological staining.

In assay [5] the test system is PPAR-γ-positive cells. Nature of the assay: Immunohistological staining of rat dorsal skin after forced oral lactoferrin (PPAR-γ). The following applies: 300 mg oral once a day, eight weeks after administration, n=3; FIG. 9. The protocol:
as §2

Where [6] appears, read: 20 μL administration liquid containing 1 mg of the fatty acid at each of four locations, FIG. 6C.
Setting [7] is: eight weeks after administration.
[8] abbreviates: four weeks after administration, vs physiological saline.

As for `CCCCC/C=C\C/C=C\CCCCCCCC(=O)O` [linoleic acid], the “wound healing-promoting effect (score divided by the score for physiological saline)” value in assay [1] (setting [6]) is “weak wound healing-promoting effect”. The “number of PPAR-γ-positive cells at the administration site” value in the assay with PPAR-γ-positive cells [2] was “did not remarkably increase”. Also, the “number of CD68-positive cells (overall statement)” value (“number … (overall statement)” below) in the assay on CD68-positive cells [3] is recorded as “did not greatly increase”. Besides, the “number of CD68-positive cells at the administration site” value with CD68-positive cells [3] (setting [7]) is “increased”; in the assay with CD68-positive cells [3] (setting [8]) it was “did not remarkably increase”.
Take `CCCCCCCCCCCCCC(=O)O` [myristic acid]: the “wound healing-promoting effect (score divided by the score for physiological saline)” value in assay [1] (setting [6]) is “high promoting effect”. The “increase in the number of PPAR-γ-positive cells at the administration site” value in the assay with PPAR-γ-positive cells [2] is “maintained”. Besides, the “number of PPAR-γ-positive cells at the administration site” value with PPAR-γ-positive cells [2] is on record as “increased”. For the same molecule, the “number of CD68-positive cells at the administration site” value in the assay on CD68-positive cells [3] (setting [7]) is reported as “maintained”; in the assay with CD68-positive cells [3] (setting [8]), “increased”.
Turning to `CCCCCCCC/C=C\CCCCCCCC(=O)O` [oleic acid], in assay [1] (setting [6]), the “wound healing-promoting effect (score divided by the score for physiological saline)” value is “weak wound healing-promoting effect”. Further, the “number of PPAR-γ-positive cells at the administration site” value with PPAR-γ-positive cells [2] is recorded as “did not remarkably increase”. Further, the “number … (overall statement)” value in the assay with CD68-positive cells [3] is listed as “did not greatly increase”. In addition, the figures for the “number of CD68-positive cells at the administration site” value with CD68-positive cells [3] (setting [7]) and in the assay with CD68-positive cells [3] (setting [8]) were “increased” and “did not remarkably increase”, respectively.
For the molecule `CCCCCCCCCCCCCCCCCC(=O)O` [stearic acid], the “wound healing-promoting effect (score divided by the score for physiological saline)” value in assay [1] (setting [6]) is recorded as “high promoting effect”. In the assay with PPAR-γ-positive cells [2], the “increase in the number of PPAR-γ-positive cells at the administration site” value is listed as “maintained” and the “number of PPAR-γ-positive cells at the administration site” value is given as “increased”. In the assay on CD68-positive cells [3] (setting [7]), the “number of CD68-positive cells at the administration site” value is reported as “maintained”. In the assay on CD68-positive cells [3] (setting [8]), the “number of CD68-positive cells at the administration site” value is “increased”.
Take `CC/C=C\C/C=C\C/C=C\CCCCCCCC(=O)O` [α-linolenic acid]: the “wound healing-promoting effect (score divided by the score for physiological saline)” value in assay [1] (setting [6]) was “weak wound healing-promoting effect”. In addition, the “number of PPAR-γ-positive cells at the administration site” value in the assay with PPAR-γ-positive cells [2] is on record as “did not remarkably increase”. For the same molecule, the “number … (overall statement)” value in the assay with CD68-positive cells [3] is listed as “did not greatly increase”. Also, the “number of CD68-positive cells at the administration site” value is “increased” in the assay on CD68-positive cells [3] (setting [7]) and “did not remarkably increase” in the assay with CD68-positive cells [3] (setting [8]).
Regarding lactoferrin, the “wound healing-promoting effect (score divided by the score for physiological saline)” value in assay [1] (20 μg or 60 μg per location in 20 μL, after seven days and after ten days, FIG. 6B) is reported as “did not exhibit a significant promoting effect”. Further, in the assay on CD68-positive cells [4], the “number of CD68-positive cells in dorsal skin” value is given as “did not increase”. For the same molecule, in the assay with PPAR-γ-positive cells [5], the “number of PPAR-γ-positive cells in dorsal skin” value is given as “did not increase”.
